In publication PMC8374649, “IBI362 (LY3305677), a weekly-dose GLP-1 and glucagon receptor dual agonist, in Chinese adults with overweight or obesity: A randomised, placebo-controlled, multiple ascending dose phase 1b study” (EClinicalMedicine, 2021):

Tested on: Chinese adults with overweight or obesity
Assay: Safety and tolerability (treatment emergent adverse events), multiple ascending dose phase 1b study
Format: in vivo, human
Method: The study included a 3-week screening period, a 12-week treatment period and an 8-week safety follow-up period. During the 12-week treatment period, the dose of IBI362 or placebo was escalated within each cohort according to one of the three dose-escalation schedules (Fig. S1). The dose-escalation regimen for the 3.0 mg cohort was 1.0 mg for 4 weeks, followed by 2.0 mg for 4 weeks and then 3.0 mg for the final 4 weeks. The dose-escalation regimen for the 4.5 mg cohort was 1.5 mg for 4 weeks, followed by 3.0 mg for 4 weeks and then 4.5 mg for the final 4 weeks. The dose-escalation regimen for the 6.0 mg cohort was 2.0 mg for 4 weeks, followed by 4.0 mg for 4 weeks and then 6.0 mg for the final 4 weeks. The 6.0 mg cohort started dosing after tolerability evaluation of 1.5 mg dosing in the 4.5 mg cohort. The internal unblinded safety monitoring group was responsible for the safety monitoring. All treatments were subcutaneously administered once a week. Investigators and authorized study personnel in each centre recorded the study data into the electronic case report forms (eCRFs), which were reviewed and validated by clinical research associates (CRAs). The data in the eCRFs were submitted to the electronic data capture (EDC) database. HbA1c, fasting plasma glucose and fasting insulin tests were performed in a central lab (Wuxi AppTec Inc.).
The primary endpoints of the study were safety and tolerability of IBI362. Adverse events (AEs) were categorised according to the Medical Dictionary for Regulatory Activities system organ class and preferred terms. Treatment emergent adverse events (TEAEs) and serious adverse events were monitored in all participants throughout the treatment period and the safety follow-up period. The severity of the AEs (mild, moderate or severe) and the association between an AE and the study drug was assessed by investigators based on pre-specified criteria.
Safety analyses were done in the safety population (defined as all participants who received at least one dose of the study treatment). Pharmacokinetic analyses were done in the pharmacokinetic population (defined as all participants who received at least one dose of IBI362 and had at least one valid plasma concentration assessment). Pharmacodynamic analyses were done in the pharmacodynamic population (defined as all participants who received at least one dose of the study treatment and had baseline and at least one valid assessment). Efficacy analyses were done in the efficacy population (defined as all participants who received at least one dose of the study treatment and had at least one post-baseline assessment).

[1] = 4.5 mg cohort (1.5-3.0-4.5 mg sc once weekly, 4 weeks each), n = 8
[2] = 6.0 mg cohort (2.0-4.0-6.0 mg sc once weekly, 4 weeks each), n = 8

SMILES: CC(C)C[C@H](NC(=O)[C@H](CC(C)C)NC(=O)[C@H](Cc1c[nH]c2ccccc12)NC(=O)[C@H](CCC(=O)O)NC(=O)[C@@H](NC(=O)[C@H](Cc1ccccc1)NC(=O)[C@H](CCC(=O)O)NC(=O)[C@H](CCCCNC(=O)COCCOCCNC(=O)COCCOCCNC(=O)CC[C@H](NC(=O)CCCCCCCCCCCCCCCCCCC(=O)O)C(=O)O)NC(=O)[C@H](C)NC(=O)[C@H](CCCCN)NC(=O)[C@H](CCCCN)NC(=O)[C@H](CCC(=O)O)NC(=O)[C@H](CC(=O)O)NC(=O)[C@H](CC(C)C)NC(=O)[C@H](Cc1ccc(O)cc1)NC(=O)[C@H](CCCCN)NC(=O)[C@H](CO)NC(=O)[C@H](Cc1ccc(O)cc1)NC(=O)[C@H](CC(=O)O)NC(=O)[C@H](CO)NC(=O)[C@@H](NC(=O)[C@H](Cc1ccccc1)NC(=O)[C@@H](NC(=O)CNC(=O)[C@H](CCC(N)=O)NC(=O)C(C)(C)NC(=O)[C@@H](N)Cc1c[nH]cn1)[C@@H](C)O)[C@@H](C)O)C(C)C)C(=O)N[C@@H](CCC(=O)O)C(=O)NCC(=O)NCC(=O)N1CCC[C@H]1C(=O)N[C@@H](CO)C(=O)N[C@@H](CO)C(=O)NCC(N)=O [IBI362]
- Myocardial ischemia [1]: 1 (12.5) n (%)
- Nasopharyngitis [1]: 0 n (%)
- Nausea [1]: 3 (37.5) n (%)
- Neutrophil count increased [1]: 1 (12.5) n (%)
- Oropharyngeal pain [1]: 1 (12.5) n (%)
- Proteinuria [1]: 2 (25.0) n (%)
- Psychiatric disorders (system organ class) [1]: 1 (12.5) n (%)
- Pyrexia [1]: 0 n (%)
- Renal and urinary disorders (system organ class) [1]: 2 (25.0) n (%)
- Reproductive system and breast disorders (system organ class) [1]: 0 n (%)
- Respiratory, thoracic and mediastinal disorders (system organ class) [1]: 1 (12.5) n (%)
- Serious adverse event [1]: 0 n (%)
- Sinus tachycardia [1]: 1 (12.5) n (%)
- Skin and subcutaneous tissue disorders (system organ class) [1]: 0 n (%)
- Soft tissue injury [1]: 0 n (%)
- Starvation [1]: 0 n (%)
- TEAE (individuals with ≥ 1 TEAE) [1]: 7 (87.5) n (%)
- Thermal burn [1]: 1 (12.5) n (%)
- Tonsillitis [1]: 0 n (%)
- Treatment-related AE [1]: 7 (87.5) n (%)
- Upper respiratory tract infection [1]: 2 (25.0) n (%)
- Urticaria [1]: 0 n (%)
- Vomiting [1]: 0 n (%)
- White blood cell count increased [1]: 1 (12.5) n (%)
- Abdominal distension [2]: 0 n (%)
- Abdominal pain [2]: 0 n (%)
- Atrioventricular block first degree [2]: 0 n (%)
- Back pain [2]: 0 n (%)
- Blood glucose increased [2]: 0 n (%)
- Calculus urinary [2]: 0 n (%)
- Cardiac disorders (system organ class) [2]: 0 n (%)
- Constipation [2]: 0 n (%)
- Decreased appetite [2]: 1 (12.5) n (%)
- Diarrhea [2]: 3 (37.5) n (%)
- Dry mouth [2]: 0 n (%)
- Dyslipidaemia [2]: 0 n (%)
- Dysmenorrhoea [2]: 0 n (%)
- Dyspepsia [2]: 1 (12.5) n (%)
- Fatigue [2]: 0 n (%)
- Folliculitis [2]: 1 (12.5) n (%)
- Gastrointestinal AE [2]: 4 (50.0) n (%)
- Gastrointestinal AE, Mild [2]: 3 (37.5) n (%)
- Gastrointestinal AE, Moderate [2]: 1 (12.5) n (%)
- Gastrointestinal disorders (system organ class) [2]: 4 (50.0) n (%)
- Gastrointestinal inflammation [2]: 0 n (%)
- General disorders and administration site conditions (system organ class) [2]: 0 n (%)
- Hiccups [2]: 1 (12.5) n (%)
- Hyperlipidaemia [2]: 0 n (%)
- Hyperuricaemia [2]: 1 (12.5) n (%)
- Hypoglycaemia event [2]: 0 n (%)
- Infections and infestations (system organ class) [2]: 1 (12.5) n (%)
- Injury, poisoning and procedural complications (system organ class) [2]: 0 n (%)
- Investigations (system organ class) [2]: 0 n (%)
- Menstruation irregular [2]: 0 n (%)
- Mental fatigue [2]: 0 n (%)
- Metabolism and nutrition disorders (system organ class) [2]: 3 (37.5) n (%)
- Mouth ulceration [2]: 0 n (%)
- Musculoskeletal and connective tissue disorders (system organ class) [2]: 0 n (%)
- Myocardial ischemia [2]: 0 n (%)
- Nasopharyngitis [2]: 0 n (%)
- Nausea [2]: 1 (12.5) n (%)
- Neutrophil count increased [2]: 0 n (%)
- Oropharyngeal pain [2]: 0 n (%)
- Proteinuria [2]: 0 n (%)
- Psychiatric disorders (system organ class) [2]: 0 n (%)
- Pyrexia [2]: 0 n (%)
- Renal and urinary disorders (system organ class) [2]: 0 n (%)
- Reproductive system and breast disorders (system organ class) [2]: 0 n (%)
- Respiratory, thoracic and mediastinal disorders (system organ class) [2]: 1 (12.5) n (%)
- Serious adverse event [2]: 0 n (%)
- Sinus tachycardia [2]: 0 n (%)
- Skin and subcutaneous tissue disorders (system organ class) [2]: 0 n (%)
- Soft tissue injury [2]: 0 n (%)
- Starvation [2]: 1 (12.5) n (%)
- TEAE (individuals with ≥ 1 TEAE) [2]: 6 (75.0) n (%)
- Thermal burn [2]: 0 n (%)
- Tonsillitis [2]: 0 n (%)
- Treatment-related AE [2]: 5 (62.5) n (%)
- Upper respiratory tract infection [2]: 0 n (%)
- Urticaria [2]: 0 n (%)
- Vomiting [2]: 1 (12.5) n (%)
- White blood cell count increased [2]: 0 n (%)
- Magnitude of heart rate increase (12-lead ECG, first 6 weeks, more prominent later, especially 6.0 mg cohort, declining from week 9 (Fig. S3)): mild
- Amylase, lipase and calcitonin levels (all IBI362 treatment groups (Fig S4)): increased in all IBI362 treatment groups but remained mostly within the normal reference range
- Discontinuation of the study due to safety reason (all cohorts): No participant discontinued the study due to safety reason
- Hypoglycaemia event or serious adverse event (all cohorts): No hypoglycaemia event or serious adverse event occurred
- Investigator suspected pancreatitis (all cohorts): No investigator suspected pancreatitis was reported
- Participants with at least one TEAE (all participants receiving IBI362 (n = 24), 19 participants): 79.2%
- Nausea (all participants receiving IBI362 (n = 24), four participants): 16.7%
- Decreased appetite (all participants receiving IBI362 (n = 24), seven participants): 29.2%
- Diarrhea (all participants receiving IBI362 (n = 24), six participants): 25.0%
